Legend:
HDAC1 = HDAC1 (Homo sapiens (Human), UniProt Q13547); test: HDAC inhibition assay; conditions: read-out: IC50 HDAC1
Description: (§2) All histone deacetylases were purchased from BPS Bioscience. […] All the other reagents were purchased from Sigma-Aldrich. Caliper EZ reader II system was used to collect all data. […] Purified HDACs were incubated with 2 μM carboxyfluorescein (FAM)-labeled acetylated or trifluoroacetylated peptide substrate (Broad Substrate A and B respectively) and test compound for 60 minutes at room temperature, in HDAC assay buffer that contained 50 mM HEPES (pH 7.4), 100 mM KCl, 0.01% BSA and 0.001% Tween-20. […] Substrate and product were separated electrophoretically and fluorescence intensity in the substrate and product peaks was determined and analyzed by Labchip EZ Reader. The reactions were performed in duplicate for each sample. IC50 values were automatically calculated by Origin 8 using 4 Parameter Logistic Model. The percent inhibition was plotted against the compound concentration, and the IC50 value was determined from the logistic dose-response curve fitting by Origin 8.0 software.

HDAC3 = HDAC3 (Homo sapiens (Human), UniProt O15379); test: HDAC inhibition assay; conditions: read-out: IC50 HDAC3
Description: as §2

HDAC2 = HDAC2 (Homo sapiens (Human), UniProt Q92769); test: HDAC inhibition assay; format: biochemical
Source text: (§1) All histone deacetylases were purchased from BPS Bioscience. […] All the other reagents were purchased from Sigma-Aldrich.

HDAC7 = HDAC7 (Homo sapiens (Human), UniProt Q8WUI4); test: HDAC inhibition assay; conditions: read-out: IC50 HDAC7
Chain of HDAC7 (Q8WUI4 whole entry): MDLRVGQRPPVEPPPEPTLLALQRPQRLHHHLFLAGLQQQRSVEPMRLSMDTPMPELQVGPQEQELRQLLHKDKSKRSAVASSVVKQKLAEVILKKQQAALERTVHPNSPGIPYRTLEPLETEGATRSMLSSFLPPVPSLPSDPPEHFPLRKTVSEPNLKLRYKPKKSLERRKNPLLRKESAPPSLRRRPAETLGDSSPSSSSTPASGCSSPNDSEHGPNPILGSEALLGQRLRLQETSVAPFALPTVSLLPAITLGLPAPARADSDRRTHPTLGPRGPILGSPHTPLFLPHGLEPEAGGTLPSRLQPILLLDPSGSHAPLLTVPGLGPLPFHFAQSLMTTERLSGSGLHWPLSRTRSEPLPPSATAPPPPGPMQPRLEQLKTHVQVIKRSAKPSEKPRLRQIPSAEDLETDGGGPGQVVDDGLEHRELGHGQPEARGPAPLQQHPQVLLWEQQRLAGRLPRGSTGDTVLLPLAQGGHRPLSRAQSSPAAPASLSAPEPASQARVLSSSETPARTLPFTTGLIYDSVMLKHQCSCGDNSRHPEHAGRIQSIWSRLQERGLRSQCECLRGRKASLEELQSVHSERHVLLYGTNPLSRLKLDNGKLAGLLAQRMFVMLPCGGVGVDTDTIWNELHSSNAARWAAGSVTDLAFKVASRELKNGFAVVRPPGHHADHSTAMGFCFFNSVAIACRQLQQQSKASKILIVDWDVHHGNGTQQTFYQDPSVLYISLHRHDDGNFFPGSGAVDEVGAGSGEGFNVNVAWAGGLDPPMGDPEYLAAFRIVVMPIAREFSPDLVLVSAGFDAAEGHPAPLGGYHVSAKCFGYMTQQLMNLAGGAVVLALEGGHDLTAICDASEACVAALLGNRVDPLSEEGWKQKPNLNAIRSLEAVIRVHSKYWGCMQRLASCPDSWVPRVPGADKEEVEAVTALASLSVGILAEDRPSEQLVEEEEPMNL
Description: as §2

HDAC9 = HDAC9 (Homo sapiens (Human), UniProt Q9UKV0); test: HDAC inhibition assay; conditions: read-out: IC50 HDAC9
Chain of HDAC9 (Q9UKV0 whole entry): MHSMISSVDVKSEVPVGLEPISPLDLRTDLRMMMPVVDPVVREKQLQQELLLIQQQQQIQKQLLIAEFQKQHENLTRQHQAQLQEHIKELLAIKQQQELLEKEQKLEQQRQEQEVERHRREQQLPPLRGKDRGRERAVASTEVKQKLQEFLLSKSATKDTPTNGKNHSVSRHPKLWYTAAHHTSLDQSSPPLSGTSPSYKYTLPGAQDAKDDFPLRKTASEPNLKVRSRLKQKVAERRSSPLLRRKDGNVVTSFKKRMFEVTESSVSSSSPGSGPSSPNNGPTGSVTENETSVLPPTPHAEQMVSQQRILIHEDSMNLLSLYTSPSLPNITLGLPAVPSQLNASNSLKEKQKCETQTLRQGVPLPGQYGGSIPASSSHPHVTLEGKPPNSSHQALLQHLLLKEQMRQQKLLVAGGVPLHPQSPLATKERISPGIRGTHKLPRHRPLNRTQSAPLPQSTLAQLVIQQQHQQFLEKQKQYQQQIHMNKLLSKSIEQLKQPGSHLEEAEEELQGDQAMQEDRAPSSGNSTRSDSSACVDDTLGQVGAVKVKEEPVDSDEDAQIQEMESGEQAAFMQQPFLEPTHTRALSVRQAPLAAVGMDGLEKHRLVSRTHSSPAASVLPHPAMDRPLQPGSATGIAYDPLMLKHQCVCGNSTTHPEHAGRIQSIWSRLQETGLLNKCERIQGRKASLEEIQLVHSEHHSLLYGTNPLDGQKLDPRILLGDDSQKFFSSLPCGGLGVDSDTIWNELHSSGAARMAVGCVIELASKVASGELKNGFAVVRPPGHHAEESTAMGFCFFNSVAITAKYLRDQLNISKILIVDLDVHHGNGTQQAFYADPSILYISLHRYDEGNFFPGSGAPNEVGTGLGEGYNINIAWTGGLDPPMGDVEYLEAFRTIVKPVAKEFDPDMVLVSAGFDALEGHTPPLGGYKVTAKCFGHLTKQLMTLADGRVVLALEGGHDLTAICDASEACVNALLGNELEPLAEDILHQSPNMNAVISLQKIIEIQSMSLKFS
Description: as §2

HDAC5 = HDAC5 (Homo sapiens (Human), UniProt Q9UQL6); test: HDAC inhibition assay; conditions: read-out: IC50 HDAC5
Chain of HDAC5 (Q9UQL6 whole entry): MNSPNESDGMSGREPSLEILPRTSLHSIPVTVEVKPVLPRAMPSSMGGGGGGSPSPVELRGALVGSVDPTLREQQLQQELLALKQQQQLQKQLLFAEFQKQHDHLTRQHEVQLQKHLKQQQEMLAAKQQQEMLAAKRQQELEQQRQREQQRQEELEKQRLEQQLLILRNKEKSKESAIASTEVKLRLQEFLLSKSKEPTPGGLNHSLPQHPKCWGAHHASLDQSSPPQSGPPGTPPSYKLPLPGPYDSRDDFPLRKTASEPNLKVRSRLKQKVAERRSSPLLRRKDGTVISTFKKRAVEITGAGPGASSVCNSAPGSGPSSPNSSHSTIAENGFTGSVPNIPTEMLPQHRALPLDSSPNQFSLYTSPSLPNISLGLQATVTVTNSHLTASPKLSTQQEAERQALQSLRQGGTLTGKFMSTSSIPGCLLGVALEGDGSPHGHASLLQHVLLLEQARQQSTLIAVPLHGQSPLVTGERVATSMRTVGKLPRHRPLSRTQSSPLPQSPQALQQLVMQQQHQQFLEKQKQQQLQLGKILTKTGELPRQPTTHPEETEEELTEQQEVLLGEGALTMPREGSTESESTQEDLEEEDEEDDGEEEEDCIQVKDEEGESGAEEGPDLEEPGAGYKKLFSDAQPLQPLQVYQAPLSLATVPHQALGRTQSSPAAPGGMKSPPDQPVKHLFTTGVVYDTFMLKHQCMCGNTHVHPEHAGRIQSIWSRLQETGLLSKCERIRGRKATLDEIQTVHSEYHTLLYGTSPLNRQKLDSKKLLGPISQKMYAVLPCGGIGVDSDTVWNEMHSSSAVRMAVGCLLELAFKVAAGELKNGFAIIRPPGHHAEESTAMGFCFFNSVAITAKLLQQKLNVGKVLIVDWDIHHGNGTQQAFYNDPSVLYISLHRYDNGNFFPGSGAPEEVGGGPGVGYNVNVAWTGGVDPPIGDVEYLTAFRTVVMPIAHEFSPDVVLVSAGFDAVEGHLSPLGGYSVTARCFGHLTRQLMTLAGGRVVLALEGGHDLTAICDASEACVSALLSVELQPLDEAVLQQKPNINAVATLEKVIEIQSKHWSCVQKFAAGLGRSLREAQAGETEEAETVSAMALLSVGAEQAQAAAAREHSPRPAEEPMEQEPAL
Description: as §2

HDAC4 = HDAC4 (Homo sapiens (Human), UniProt P56524); test: HDAC inhibition assay; conditions: read-out: IC50 HDAC4
Description: as §2

HDAC6 = HDAC6 (Homo sapiens (Human), UniProt Q9UBN7); test: HDAC inhibition assay; format: biochemical
Source text: as §1

HDAC8 = HDAC8 (Homo sapiens (Human), UniProt Q9BY41); test: HDAC inhibition assay; format: biochemical
Chain of HDAC8 (Q9BY41 whole entry): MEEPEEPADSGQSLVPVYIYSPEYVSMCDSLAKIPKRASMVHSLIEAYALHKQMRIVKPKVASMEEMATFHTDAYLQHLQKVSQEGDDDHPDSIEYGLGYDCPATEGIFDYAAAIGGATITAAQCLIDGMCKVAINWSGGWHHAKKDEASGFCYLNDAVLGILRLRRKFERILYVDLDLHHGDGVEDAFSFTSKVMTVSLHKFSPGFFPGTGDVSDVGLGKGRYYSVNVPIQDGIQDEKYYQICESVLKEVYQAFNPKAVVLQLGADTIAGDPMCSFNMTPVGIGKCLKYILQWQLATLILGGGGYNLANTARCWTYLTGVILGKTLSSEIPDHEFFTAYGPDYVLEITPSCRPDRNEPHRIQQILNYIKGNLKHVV
Source text: as §1

histone deacetylases = test: Baboon PET/MR imaging with [11C]CN133; format: in vivo, baboon (Papio anubis); conditions: for VT (Ichese MAI), CN147 blocked / VT (Logan Plot), CN147 blocked: [11C]CN133 VT after CN147 0.5 mg/kg intravenous; for VT (Ichese MAI), % Difference / VT (Logan Plot), % Difference: baseline vs CN147 blocked
Description: A female Papio Anubis baboon, deprived of food for 12 hours prior to the study, was administered intramuscular ketamine (10 mg/kg) and intubated. For maintenance of anesthesia throughout the study, the baboon was provided 1%-4% isoflurane (Forane) in a mixture of medical oxygen and nitrogen. The baboon was catheterized antecubitally for radiotracer injection and a radial arterial line was placed for metabolite analysis. MR-PET images were acquired in a BiographmMR scanner (Siemens, Munich, Germany), and PET compatible 8-channel coil arrays for non-human primate brain imaging with a PET resolution of 5 mm and field of view of 59.4 cm and 25.8 cm (transaxial and axial, respectively). Dynamic PET image acquisition was initiated followed by administration of the radiotracer in a homogenous solution of 10% ethanol and 90% isotonic saline. An […] sequence began after 30 minutes of the baseline scan for anatomic coregistration. […] Both scans were carried out in the same animal on the same day, separated by 2.5 hours. In both scans, 4-5 mCi of [^11C]CN133 was administered to the baboon. Dynamic data from the PET scans were recorded in list mode and corrected for attenuation. Baboon data were reconstructed using a 3D-OSEM method resulting in a full width at half-maximum resolution of 4 mm.
Volumes of interest (VOIs) were drawn manually as spheres in brain regions guided by high resolution MR structural images and summed PET data, with a radius no less than 4 mm. A common VOI mask was applied to both baboon scans. Time-activity curves (TACs) were exported in terms of decay corrected activity per unit volume at specified time points with gradually increasing intervals. The TACs were expressed as percent injected dose per unit volume for analysis.
Arterial samples collected during imaging from the baboon were centrifuged to obtain plasma, which was then removed and placed in an automated gamma counter that was calibrated to the PET scanner. Metabolite analysis was conducted on a custom automated robot fitted with Phenomenex SPE Strata-X 500 mg solid phase extraction cartridges that were primed with ethanol (2 mL) and deionized water (20 mL). Protein precipitation was achieved by addition of plasma (300 μL) to acetonitrile (300 μL), which was centrifuged for 1 minute to obtain protein-free plasma (PFP). 300 μL of PFP/acetonitrile solution was diluted into deionized water (3 mL), loaded onto the C18 cartridge, and removed of polar metabolites with 100% water. Next, a series of extractions were performed using water and acetonitrile in quantities: 95:5, 90:10, 85:15, 80:20, 70:30, 60:40, 30:70 and 100% acetonitrile at a volume of 4 mL. A control experiment was performed before metabolite analysis to determine the retention of the parent compound by injection of a small amount of [^11C]CN133 onto a test series of extraction cartridges. Each sample was counted in a WIZARD2 Automatic Gamma Counter to determine the presence of radiolabeled metabolites.
CN147 blocks ˜40% of [^11C]CN133 binding in NHP whole brain and in cerebellum. Plasma-normalized data were evaluated by volume of interest analysis (VOI) at the whole brain level and at level of the cerebellum. VOI data were then applied to distribution volume (VT) data analysis by two graphical methods using PMOD software, tabulated in Tables A and B below. Logan Plot and Ichese MAI methods were clarified from previous NHP imaging analyses to provide an accurate VT estimate (+/− standard error) from data beginning 35 min after injection of radiotracer (t*=35 min) until the end of the scan (t=80min).

Chain of HDAC3 (O15379 whole entry): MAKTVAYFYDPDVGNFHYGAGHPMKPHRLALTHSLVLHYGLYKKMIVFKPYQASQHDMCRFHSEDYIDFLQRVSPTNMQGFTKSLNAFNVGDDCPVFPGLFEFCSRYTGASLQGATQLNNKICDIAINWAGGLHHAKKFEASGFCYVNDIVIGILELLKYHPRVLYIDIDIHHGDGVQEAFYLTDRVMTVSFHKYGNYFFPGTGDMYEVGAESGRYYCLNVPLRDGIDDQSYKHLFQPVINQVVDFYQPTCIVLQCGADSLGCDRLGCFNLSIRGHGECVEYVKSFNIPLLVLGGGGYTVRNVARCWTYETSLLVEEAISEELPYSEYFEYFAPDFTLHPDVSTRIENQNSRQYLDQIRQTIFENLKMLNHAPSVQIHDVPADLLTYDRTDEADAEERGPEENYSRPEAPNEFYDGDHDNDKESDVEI
Chain of HDAC3 (Q9Y618 395-489 partner): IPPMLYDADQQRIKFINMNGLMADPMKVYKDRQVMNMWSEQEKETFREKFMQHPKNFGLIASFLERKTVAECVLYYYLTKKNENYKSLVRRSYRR
Chain of HDAC2 (Q92769 whole entry): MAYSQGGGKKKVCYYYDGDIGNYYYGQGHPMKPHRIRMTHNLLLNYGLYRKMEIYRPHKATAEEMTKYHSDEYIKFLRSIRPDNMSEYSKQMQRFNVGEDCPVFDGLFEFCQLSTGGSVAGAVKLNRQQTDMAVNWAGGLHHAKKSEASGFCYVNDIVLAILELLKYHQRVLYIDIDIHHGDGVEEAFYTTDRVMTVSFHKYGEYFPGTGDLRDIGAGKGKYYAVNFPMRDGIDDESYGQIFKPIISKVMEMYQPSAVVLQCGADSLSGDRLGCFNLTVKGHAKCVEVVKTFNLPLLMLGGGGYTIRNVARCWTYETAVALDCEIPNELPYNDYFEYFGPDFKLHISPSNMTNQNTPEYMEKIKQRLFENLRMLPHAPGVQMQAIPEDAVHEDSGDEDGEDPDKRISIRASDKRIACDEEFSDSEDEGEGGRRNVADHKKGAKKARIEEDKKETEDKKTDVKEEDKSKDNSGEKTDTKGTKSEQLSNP
Chain of HDAC1 (Q13547 whole entry): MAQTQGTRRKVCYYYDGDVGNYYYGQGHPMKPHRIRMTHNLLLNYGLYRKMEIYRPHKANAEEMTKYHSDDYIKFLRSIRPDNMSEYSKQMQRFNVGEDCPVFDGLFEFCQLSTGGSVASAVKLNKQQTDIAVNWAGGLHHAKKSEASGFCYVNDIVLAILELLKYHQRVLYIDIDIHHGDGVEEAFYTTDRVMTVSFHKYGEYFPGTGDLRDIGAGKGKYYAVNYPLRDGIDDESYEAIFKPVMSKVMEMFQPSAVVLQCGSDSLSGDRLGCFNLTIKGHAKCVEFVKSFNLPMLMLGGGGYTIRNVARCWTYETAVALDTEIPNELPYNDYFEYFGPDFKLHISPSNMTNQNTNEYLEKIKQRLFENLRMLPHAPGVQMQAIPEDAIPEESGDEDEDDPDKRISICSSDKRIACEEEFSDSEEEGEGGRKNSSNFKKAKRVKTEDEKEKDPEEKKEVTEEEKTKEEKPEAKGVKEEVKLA

| Compound | IC50 (HDAC1) [nM] | IC50 (HDAC3) [nM] | IC50 (HDAC2) [nM] | IC50 (HDAC7) [nM] | IC50 (HDAC9) [nM] | IC50 (HDAC5) [nM] | IC50 (HDAC4) [nM] | IC50 (HDAC6) [nM] | IC50 (HDAC8) [nM] | VT (Ichese MAI), CN147 blocked (histone deacetylases; Cerebellum VOI) | VT (Logan Plot), CN147 blocked (histone deacetylases; Cerebellum VOI) | VT (Ichese MAI), % Difference (histone deacetylases; Cerebellum VOI) [%] | VT (Logan Plot), % Difference (histone deacetylases; Cerebellum VOI) [%] | blocking of [11C]CN133 binding (histone deacetylases; NHP whole brain and cerebellum) [%] | VT (Ichese MAI), CN147 blocked (histone deacetylases; Whole Brain VOI) | VT (Logan Plot), CN147 blocked (histone deacetylases; Whole Brain VOI) | VT (Ichese MAI), % Difference (histone deacetylases; Whole Brain VOI) [%] | VT (Logan Plot), % Difference (histone deacetylases; Whole Brain VOI) [%] |
| --- | --- | --- | --- | --- | --- | --- | --- | --- | --- | --- | --- | --- | --- | --- | --- | --- | --- | --- |
| CNc1ccc(C(=O)NCCCCC(=O)NO)cc1 [CN51] | 106 | 84.5 | 477 | – | – | – | – | – | – | – | – | – | – | – | – | – | – | – |
| CN(C)c1ccc(C(=O)NCCCCCCC(=O)NO)cc1 [CN52] | 7.3 | 4.3 | 20.7 | – | – | – | – | – | – | – | – | – | – | – | – | – | – | – |
| CNc1ccc(C(=O)NCCCCCCC(=O)NO)cc1 [CN53] | 6.1 | 5.7 | 11.9 | – | – | – | – | – | – | – | – | – | – | – | – | – | – | – |
| CN(C)CCOc1ccc2c(c1)C(c1ccc(C(=O)NO)cc1)=Nc1ccccc1O2 [CN56] | 270 | 97.8 | 160 | – | – | – | – | – | – | – | – | – | – | – | – | – | – | – |
| O=C(/C=C/c1ccccc1)NO [CN86] | 133 | 151 | 470 | > 20000 | > 50000 | > 10000 | > 10000 | 21.7 | 725 | – | – | – | – | – | – | – | – | – |
| COc1ccc(/C=C/C(=O)NO)cc1 [CN87] | 301 | 238 | 833 | > 70000 | > 70000 | > 10000 | > 70000 | 23.2 | 2570 | – | – | – | – | – | – | – | – | – |
| CN(c1ccccc1)S(=O)(=O)c1cccc(/C=C/C(=O)NO)c1 [CN88] | 17.8 | 13.7 | 52.9 | 2020 | > 10000 | 7950 | 3830 | 4.1 | 925 | – | – | – | – | – | – | – | – | – |
| CN(CCc1ccccc1)S(=O)(=O)c1cccc(/C=C/C(=O)NO)c1 [CN89] | 5 | 3.4 | 32 | – | > 10000 | > 10000 | 500 | 5 | 150 | – | – | – | – | – | – | – | – | – |
| CCCCc1nc2cc(/C=C/C(=O)NO)ccc2n1CCN(C)C [CN101] | 4.7 | 1.9 | 18 | > 40000 | > 50000 | > 10000 | > 10000 | 8.4 | 2370 | – | – | – | – | – | – | – | – | – |
| Cn1cc(CCNCc2ccc(/C=C/C(=O)NO)cc2)c2ccccc21 [CN107] | 0.2 | 0.4 | 1.2 | 2040 | 4850 | 99 | 655 | 1.6 | 1040 | – | – | – | – | – | – | – | – | – |
| COc1ccc2c(c1)C(=O)N(CCCCCC(=O)NO)c1ccccc1S2 [CN112] | 1.2 | 1.1 | 4 | – | 1470 | > 20000 | > 10000 | 2.3 | > 70000 | – | – | – | – | – | – | – | – | – |
| COc1ccc2c(c1)C(=O)N(CCCCCC(=O)NO)c1ccccc1S2(=O)=O [CN113] | 0.8 | 1.3 | 2 | 9650 | > 20000 | 3850 | 9450 | 1.2 | 2840 | – | – | – | – | – | – | – | – | – |
| O=C(/C=C/c1ccc(CNCC23CC4CC(CC(C4)C2)C3)cc1)NO [CN132] | 0.95 | 1.2 | 7.8 | > 20000 | > 10000 | – | – | 1.7 | > 10000 | – | – | – | – | – | – | – | – | – |
| CN(Cc1ccc2c(c1)CCC(C(=O)NO)=C2)CC12CC3CC(CC(C3)C1)C2 [CN141] | 55.8 | 97.9 | – | 5510 | > 10000 | 207 | 389 | 14.4 | 2400 | – | – | – | – | – | – | – | – | – |
| O=C(/C=C/c1ccc(CNCC2CCCCC2)cc1)NO [CN143] | 1.8 | 4.3 | – | > 20000 | > 10000 | 196 | 927 | 9.7 | 9600 | – | – | – | – | – | – | – | – | – |
| CN(C)Cc1ccc(/C=C/C(=O)NO)cc1 [CN145] | > 50000 | 9240 | – | – | – | > 70000 | – | 6820 | – | – | – | – | – | – | – | – | – | – |
| O=C(/C=C/c1ccc(CN(CCF)CC23CC4CC(CC(C4)C2)C3)cc1)NO [CN146] | 221 | 470 | – | > 30000 | > 40000 | 5350 | > 10000 | 308 | > 30000 | – | – | – | – | – | – | – | – | – |
| CN(Cc1ccc(/C=C/C(=O)Nc2ccccc2N)cc1)CC12CC3CC(CC(C3)C1)C2 [CN147] | – | – | – | – | – | – | – | – | – | 11.68 ± 8.42 | 11.59 ± 3.37 | 39.95 | 39.89 | ~40 | 8.92 ± 9.26 | 8.85 ± 3.06 | 39.11 | 38.80 |
| O=C(/C=C/c1ccc(CNCC23CC4CC(CC(C4)C2)C3)c(F)c1)NO [CN148] | 0.78 | 0.5 | 6.4 | > 50000 | > 50000 | 4310 | > 70000 | 9.5 | 4900 | – | – | – | – | – | – | – | – | – |
| CN(Cc1ccc(/C=C/C(=O)NO)cc1F)CC12CC3CC(CC(C3)C1)C2 [CN149] | 0.78 | 0.76 | – | > 50000 | > 50000 | 4750 | 20300 | 11.7 | > 50000 | – | – | – | – | – | – | – | – | – |
| CCCCN(Cc1ccc(C(=O)NO)cc1)C(=O)Nc1ccccc1OC [CN165] | 96.7 | 143 | 307 | – | – | – | – | 2.13 | 493 | – | – | – | – | – | – | – | – | – |
| O=C(/C=C/c1ccc(CNCC2CCCCC2)c(F)c1)NO [CN166] | 1.64 | 0.54 | 14.2 | – | – | – | – | 11.7 | 725 | – | – | – | – | – | – | – | – | – |
| CN(Cc1ccc(/C=C/C(=O)NO)cc1F)CC1CCCCC1 [CN167] | 5.43 | 4.83 | 40 | – | – | – | – | 18.7 | 1810 | – | – | – | – | – | – | – | – | – |

Reference: patent US10188756B2, “Imaging histone deacetylases with a radiotracer using positron emission tomography” (THE GENERAL HOSPITAL CORPORATION, priority 2013, dated 2019)
